Columns and labels:
human MR = biological target: T1, human MR (Homo sapiens, UniProt P08235); experiment: Mineralocorticoid Receptor Binding Assay ([3H]-aldosterone); conditions: [3H]-aldosterone binding, human MR expressed in Sf9 cells; read-out: MR Ki
T1 construct: The full length human MR gene is cloned from a human kidney or human brain cDNA library; His tag from the pAcHLT vector (own knowledge); made in house; host or cells: Sf9 insect cells (baculovirus, pAcHLT transfer vector)
T1 sequence (P08235 1-984): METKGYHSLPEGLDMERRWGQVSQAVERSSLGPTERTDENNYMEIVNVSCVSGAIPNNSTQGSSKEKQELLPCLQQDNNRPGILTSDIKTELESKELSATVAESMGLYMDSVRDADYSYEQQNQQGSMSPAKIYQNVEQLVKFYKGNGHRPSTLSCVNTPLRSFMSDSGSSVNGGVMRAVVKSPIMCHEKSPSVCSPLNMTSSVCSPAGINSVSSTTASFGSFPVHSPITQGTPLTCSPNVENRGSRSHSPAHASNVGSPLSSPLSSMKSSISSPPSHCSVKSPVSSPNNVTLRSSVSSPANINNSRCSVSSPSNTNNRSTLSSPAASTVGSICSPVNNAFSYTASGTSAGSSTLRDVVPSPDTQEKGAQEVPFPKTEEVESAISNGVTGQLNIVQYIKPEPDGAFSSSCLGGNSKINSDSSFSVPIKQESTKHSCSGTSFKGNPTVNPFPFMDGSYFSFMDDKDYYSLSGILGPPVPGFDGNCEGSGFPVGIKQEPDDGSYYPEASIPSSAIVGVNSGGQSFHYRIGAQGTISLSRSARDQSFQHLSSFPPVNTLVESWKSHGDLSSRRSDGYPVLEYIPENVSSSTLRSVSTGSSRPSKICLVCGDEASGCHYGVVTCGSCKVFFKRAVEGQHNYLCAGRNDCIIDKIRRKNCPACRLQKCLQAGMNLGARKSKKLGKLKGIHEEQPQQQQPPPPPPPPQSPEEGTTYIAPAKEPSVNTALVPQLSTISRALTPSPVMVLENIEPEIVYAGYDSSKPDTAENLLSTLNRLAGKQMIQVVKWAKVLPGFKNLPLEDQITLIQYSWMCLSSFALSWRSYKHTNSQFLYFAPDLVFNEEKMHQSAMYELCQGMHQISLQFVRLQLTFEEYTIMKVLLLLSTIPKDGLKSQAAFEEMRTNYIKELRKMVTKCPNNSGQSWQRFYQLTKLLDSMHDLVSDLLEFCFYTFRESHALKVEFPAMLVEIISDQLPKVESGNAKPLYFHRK
In short: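 Lysate supernatant of Sf9 cells expressing full-length human MR (20-25 μg protein) was incubated with 0.5 nM [3H]-aldosterone and test compound in molybdate/Tris/phosphate/glycerol buffer, pH 7.5, ~16 h at 4 °C. Bound ligand was filtered and counted by scintillation; IC50 is the concentration halving [3H]-aldosterone binding.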

glucocorticoid receptor = biological target: T2, glucocorticoid receptor (Homo sapiens, UniProt P04150); experiment: Glucocorticoid Receptor Binding Assay ([3H]-dexamethasone, A549 cell extract); conditions: [3H]-dexamethasone binding, read-out: GR Ki
T2 construct: containing 50-200 ug of A549 cell extract and 1.86 nM [^3H]-dexamethasone; host or cells: A549 human lung epithelial cells (sonicated cell extract)
T2 sequence (P04150 1-777): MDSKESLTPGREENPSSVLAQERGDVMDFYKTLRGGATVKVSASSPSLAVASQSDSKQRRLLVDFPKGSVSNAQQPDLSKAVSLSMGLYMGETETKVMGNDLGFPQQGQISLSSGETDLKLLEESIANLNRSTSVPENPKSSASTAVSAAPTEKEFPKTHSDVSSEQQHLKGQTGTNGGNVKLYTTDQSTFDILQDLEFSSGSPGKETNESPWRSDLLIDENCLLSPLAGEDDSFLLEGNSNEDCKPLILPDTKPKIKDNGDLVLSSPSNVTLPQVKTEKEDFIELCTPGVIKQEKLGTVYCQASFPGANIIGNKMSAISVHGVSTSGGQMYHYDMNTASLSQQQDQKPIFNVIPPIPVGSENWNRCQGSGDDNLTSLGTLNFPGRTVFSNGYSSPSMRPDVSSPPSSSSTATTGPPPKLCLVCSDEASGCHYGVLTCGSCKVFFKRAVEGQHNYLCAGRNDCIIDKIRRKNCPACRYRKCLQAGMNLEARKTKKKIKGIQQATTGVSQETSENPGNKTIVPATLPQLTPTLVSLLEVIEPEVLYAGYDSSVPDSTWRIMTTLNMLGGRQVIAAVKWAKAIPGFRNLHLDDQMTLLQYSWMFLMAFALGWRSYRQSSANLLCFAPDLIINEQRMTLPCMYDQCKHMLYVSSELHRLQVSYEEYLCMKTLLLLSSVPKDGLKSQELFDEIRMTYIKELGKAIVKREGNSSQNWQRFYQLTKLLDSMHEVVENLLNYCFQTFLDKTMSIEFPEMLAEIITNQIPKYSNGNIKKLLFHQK
In short: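 A549 cell extract (50–200 ug) incubated with 1.86 nM [3H]-dexamethasone and test compound for 16 h at 4 °C in Tris-HCl pH 7.2 buffer with glycerol and molybdate. Unbound radioligand removed by dextran-coated charcoal, then supernatant bound counts measured by scintillation.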

`CS(=O)(=O)Nc1cc(F)cc(C=C2c3ccccc3CCc3ccccc32)c1` [Example 50, N-[3-(10,11-Dihydro-dibenzo[a,d]cyclohepten-5-ylidenemethyl)-5-fluoro-phenyl]-methanesulfonamide] was tested, and the Ki (human MR) was < 500 nM and the Ki (glucocorticoid receptor) was < 500 nM.
`COc1ccc(OC)c(C=C2c3ccccc3CCc3ccccc32)c1` [Example 52, 5-(2,5-Dimethoxy-benzylidene)-10,11-dihydro-5H-dibenzo[a,d]cycloheptene] was tested, and the Ki (human MR) was < 500 nM and the Ki (glucocorticoid receptor) was < 10000 nM.
In the case of `Oc1cc(O)cc(C=C2c3ccccc3CCc3ccccc32)c1` [Example 54, 5-(10,11-Dihydro-dibenzo[a,d]cyclohepten-5-ylidenemethyl)-benzene-1,3-diol], the Ki (human MR) is reported as < 500 nM and the Ki (glucocorticoid receptor) is reported as < 500 nM.
`Oc1cccc(C=C2c3ccccc3CCc3ccccc32)c1` [Example 57, 3-(10,11-Dihydro-dibenzo[a,d]cyclohepten-5-ylidenemethyl)-phenol] was tested, and the Ki (human MR) was < 500 nM and the Ki (glucocorticoid receptor) was < 500 nM.
With `FC(F)c1ccc(C=C2c3ccccc3CCc3ccccc32)cc1` [Example 73, 5-(4-Difluoromethyl-benzylidene)-10,11-dihydro-5H-dibenzo[a,d]cycloheptene] the Ki (human MR) was < 500 nM and the Ki (glucocorticoid receptor) was < 1000 nM.
With `OCc1cccc(C=C2c3ccccc3CCc3ccccc32)c1` [Example 75, [3-(10,11-Dihydro-dibenzo[a,d]cyclohepten-5-ylidenemethyl)-phenyl]-methanol] the Ki (human MR) was < 500 nM and the Ki (glucocorticoid receptor) was < 500 nM.
For `OCc1ccc(C=C2c3ccccc3CCc3ccccc32)cc1` [Example 76, [4-(10,11-Dihydro-dibenzo[a,d]cyclohepten-5-ylidenemethyl)-phenyl]-methanol], the Ki (human MR) was < 1000 nM and the Ki (glucocorticoid receptor) was < 500 nM.
For `O/N=C/c1ccccc1C=C1c2ccccc2CCc2ccccc21` [Example 77, 2-(10,11-Dihydro-dibenzo[a,d]cyclohepten-5-ylidenemethyl)-benzaldehyde oxime], the Ki (human MR) was < 500 nM and the Ki (glucocorticoid receptor) was < 500 nM.
In the case of `O/N=C/c1cccc(C=C2c3ccccc3CCc3ccccc32)c1` [Example 78, 3-(10,11-Dihydro-dibenzo[a,d]cyclohepten-5-ylidenemethyl)-benzaldehyde oxime], the Ki (human MR) is reported as < 500 nM and the Ki (glucocorticoid receptor) is reported as < 1000 nM.
`O/N=C/c1ccc(C=C2c3ccccc3CCc3ccccc32)cc1` [Example 79, 4-(10,11-Dihydro-dibenzo[a,d]cyclohepten-5-ylidenemethyl)-benzaldehyde oxime] was tested, and the Ki (human MR) was < 500 nM and the Ki (glucocorticoid receptor) was < 500 nM.
For `N#Cc1ccc(C=C2c3ccccc3CCc3ccccc32)cc1` [Example 82, 4-(10,11-Dihydro-dibenzo[a,d]cyclohepten-5-ylidenemethyl)-benzonitrile], the Ki (human MR) was < 500 nM and the Ki (glucocorticoid receptor) was < 1000 nM.
For `NC(=O)c1cccc(C=C2c3ccccc3CCc3ccccc32)c1` [Example 84, 3-(10,11-Dihydro-dibenzo[a,d]cyclohepten-5-ylidenemethyl)-benzamide], the Ki (human MR) was < 500 nM and the Ki (glucocorticoid receptor) was < 10000 nM.
With `NC(=O)c1ccc(C=C2c3ccccc3CCc3ccccc32)cc1` [Example 85, 4-(10,11-Dihydro-dibenzo[a,d]cyclohepten-5-ylidenemethyl)-benzamide] the Ki (human MR) was < 500 nM and the Ki (glucocorticoid receptor) was < 500 nM.
With `CS(=O)(=O)Nc1cccc(C=C2c3ccccc3CCc3ccccc32)c1` [Example 90, N-[3-(10,11-Dihydro-dibenzo[a,d]cyclohepten-5-ylidenemethyl)-phenyl]-methanesulfonamide] the Ki (human MR) was < 500 nM and the Ki (glucocorticoid receptor) was < 500 nM.
For `Cc1nc(S(=O)(=O)Nc2cccc(C=C3c4ccccc4CCc4ccccc43)c2)cn1C` [Example 96, 1,2-Dimethyl-1H-imidazole-4sulfonic acid [3-(10,11-dihydro-dibenzo[a,d]cyclohepten-5-ylidenemethyl)-phenyl]-amide], the Ki (human MR) was < 500 nM and the Ki (glucocorticoid receptor) was < 10000 nM.
`CCCS(=O)(=O)Nc1cccc(C=C2c3ccccc3CCc3ccccc32)c1` [Example 104, Propane-1-sulfonic acid [3-(10,11-dihydro-dibenzo[a,d]cyclohepten-5-ylidenemethyl)-phenyl]-amide] was tested, and the Ki (human MR) was < 500 nM and the Ki (glucocorticoid receptor) was < 500 nM.

Reference: US20060063759A1, “Tricyclic steroid hormone nuclear receptor modulators” (priority 2002, published 2006)
